{"source": "paper PMC2631656", "about": "(Journal of medicinal chemistry, 2008)", "key": {"[1]": {"test_system": "PSMA^+ PC-3 PIP and PC-3 flu xenografts", "experiment": "PET-CT imaging, PC-3 PIP and PC-3 flu xenografts", "assay_type": "in vivo", "conditions": "dynamic scan 94-120 min p.i., i.v."}, "[2]": {"test_system": "PC-3 PIP (PSMA^+) and PC-3 flu (PSMA^-) xenografts"}}, "note": "Like-named read-outs stand apart in the source and are kept apart here."}
{"smiles": "O=C(O)CCC(NC(=O)NC(CCCCNC(=O)c1ccc([18F])cc1)C(=O)O)C(=O)O", "note": "(stereo not drawn) [Compound [^18F]6, 2-[3-[1-carboxy-5-(4-[^18F]fluoro-benzoylamino)-pentyl]-ureido]-pentanedioic acid]", "values": [{"measurement": "uptake pattern on PET", "setting": "[1]", "value": "easily observed within PSMA^+ PIP tumor, none within flu tumor, high renal uptake and a modest degree of liver uptake"}, {"measurement": "uptake in PC-3 PIP tumor", "setting": "[2]; 30 min p.i.", "value": "8.6 ± 3.1", "unit": "% ID/g"}, {"measurement": "uptake in PC-3 flu tumor", "setting": "[2]; 30 min p.i.", "value": "0.8 ± 0.3", "unit": "% ID/g"}, {"measurement": "uptake in bladder", "setting": "[2]; 30 min p.i.", "value": "6.8 ± 3.5", "unit": "% ID/g"}, {"measurement": "uptake in blood", "setting": "[2]; 30 min p.i.", "value": "2.5 ± 1.7", "unit": "% ID/g"}, {"measurement": "uptake in heart", "setting": "[2]; 30 min p.i.", "value": "0.8 ± 0.1", "unit": "% ID/g"}, {"measurement": "uptake in kidney", "setting": "[2]; 30 min p.i.", "value": "72 ± 3", "unit": "% ID/g"}, {"measurement": "uptake in large int.", "setting": "[2]; 30 min p.i.", "value": "1.2 ± 0.8", "unit": "% ID/g"}, {"measurement": "uptake in liver", "setting": "[2]; 30 min p.i.", "value": "8.7 ± 1.8", "unit": "% ID/g"}, {"measurement": "uptake in lung", "setting": "[2]; 30 min p.i.", "value": "1.7 ± 0.3", "unit": "% ID/g"}, {"measurement": "uptake in muscle", "setting": "[2]; 30 min p.i.", "value": "2.4 ± 3.1", "unit": "% ID/g"}, {"measurement": "uptake in pancreas", "setting": "[2]; 30 min p.i.", "value": "0.8± 0.1", "unit": "% ID/g"}, {"measurement": "uptake in small int.", "setting": "[2]; 30 min p.i.", "value": "1.7 ± 0.7", "unit": "% ID/g"}, {"measurement": "uptake in spleen", "setting": "[2]; 30 min p.i.", "value": "12.7 ± 0.4", "unit": "% ID/g"}, {"measurement": "uptake in stomach", "setting": "[2]; 30 min p.i.", "value": "0.8 ± 0.1", "unit": "% ID/g"}, {"measurement": "uptake in PC-3 PIP tumor", "setting": "[2]; 60 min p.i.", "value": "6.4 ± 0.9", "unit": "% ID/g"}, {"measurement": "uptake in bladder", "setting": "[2]; 60 min p.i.", "value": "17 ± 21", "unit": "% ID/g"}, {"measurement": "uptake in heart", "setting": "[2]; 60 min p.i.", "value": "0.2 ± 0.02", "unit": "% ID/g"}, {"measurement": "uptake in kidney", "setting": "[2]; 60 min p.i.", "value": "48 ± 5", "unit": "% ID/g"}, {"measurement": "uptake in large int.", "setting": "[2]; 60 min p.i.", "value": "0.5 ± 0.1", "unit": "% ID/g"}, {"measurement": "uptake in liver", "setting": "[2]; 60 min p.i.", "value": "5.8 ± 0.6", "unit": "% ID/g"}, {"measurement": "uptake in lung", "setting": "[2]; 60 min p.i.", "value": "0.5 ± 0.1", "unit": "% ID/g"}, {"measurement": "uptake in muscle", "setting": "[2]; 60 min p.i.", "value": "0.5 ± 0.7", "unit": "% ID/g"}, {"measurement": "uptake in small int.", "setting": "[2]; 60 min p.i.", "value": "0.6 ± 0.2", "unit": "% ID/g"}, {"measurement": "uptake in spleen", "setting": "[2]; 60 min p.i.", "value": "7.2 ± 1.6", "unit": "% ID/g"}, {"measurement": "uptake in stomach", "setting": "[2]; 60 min p.i.", "value": "0.25 ± 0.1", "unit": "% ID/g"}, {"measurement": "uptake in PC-3 PIP tumor", "setting": "[2]; 2 h p.i.", "value": "3.7 ± 1.2", "unit": "% ID/g"}, {"measurement": "uptake in PC-3 flu tumor", "setting": "[2]; 2 h p.i.", "value": "0.25 ± 0.1", "unit": "% ID/g"}, {"measurement": "uptake in heart", "setting": "[2]; 2 h p.i.", "value": "0.15 ± 0.05", "unit": "% ID/g"}, {"measurement": "uptake in kidney", "setting": "[2]; 2 h p.i.", "value": "29 ± 12", "unit": "% ID/g"}, {"measurement": "uptake in large int.", "setting": "[2]; 2 h p.i.", "value": "0.2 ± 0.1", "unit": "% ID/g"}, {"measurement": "uptake in liver", "setting": "[2]; 2 h p.i.", "value": "11.7 ± 7.0", "unit": "% ID/g"}, {"measurement": "uptake in muscle", "setting": "[2]; 2 h p.i.", "value": "0.2 ± 0.1", "unit": "% ID/g"}, {"measurement": "uptake in pancreas", "setting": "[2]; 2 h p.i.", "value": "0.15 ± 0.03", "unit": "% ID/g"}, {"measurement": "uptake in spleen", "setting": "[2]; 2 h p.i.", "value": "4.4 ± 1.2", "unit": "% ID/g"}, {"measurement": "uptake in bladder", "setting": "[2]; 5 h p.i.", "value": "5.2 ± 8.9", "unit": "% ID/g"}, {"measurement": "uptake in blood", "setting": "[2]; 5 h p.i.", "value": "0.03 ± 0.00", "unit": "% ID/g"}, {"measurement": "uptake in heart", "setting": "[2]; 5 h p.i.", "value": "0.03 ± 0.01", "unit": "% ID/g"}, {"measurement": "uptake in kidney", "setting": "[2]; 5 h p.i.", "value": "14 ± 9", "unit": "% ID/g"}, {"measurement": "uptake in large int.", "setting": "[2]; 5 h p.i.", "value": "0.6 ± 0.6", "unit": "% ID/g"}, {"measurement": "uptake in pancreas", "setting": "[2]; 5 h p.i.", "value": "0.05 ± 0.03", "unit": "% ID/g"}, {"measurement": "uptake in stomach", "setting": "[2]; 5 h p.i.", "value": "0.04 ± 0.02", "unit": "% ID/g"}]}
